Experimental data as given in PMC7840129, “Structural basis for heme-dependent NCoR binding to the transcriptional repressor REV-ERBβ” (Science Advances, 2021).

Molecular target: T1, Apo REV-ERBβ LBD (Homo sapiens, UniProt Q14995)
T1 construct: The human REV-ERBβ LBD (residues 381 to 579) was previously cloned; 6xHis with 3C protease cleavage site (N, cleaved yes); made in house; host or cells: E. coli BL21(DE3)
T1 sequence (Q14995 381-579): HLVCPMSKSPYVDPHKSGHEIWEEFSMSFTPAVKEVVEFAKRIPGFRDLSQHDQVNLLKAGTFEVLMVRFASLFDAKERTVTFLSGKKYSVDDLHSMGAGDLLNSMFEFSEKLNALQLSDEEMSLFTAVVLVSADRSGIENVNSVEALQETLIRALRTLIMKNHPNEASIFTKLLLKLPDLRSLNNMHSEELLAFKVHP
Experiment: ITC, NCoR ID peptides with apo REV-ERBβ LBD
Assay type: binding
Description: The human REV-ERBβ LBD (residues 381 to 579) was previously cloned into the pET46 vector ([18]). The mouse NCoR RID (residues 1942 to 2208 in the X50 splice variant), which has 87% sequence identity to human NCoR RID (100% sequence identity in the ID motifs), was previously cloned into the pET32 vector ([29]). NCoR RID mutants were generated by site-directed mutagenesis: The ID1 CoRNR box motif was mutated from […] to […] (ΔID1 and ΔID1ΔID2), and the ID2 CoRNR box motif was mutated from LEDIIRKAL to TEDTTRKAL (ΔID2 and ΔID1ΔID2), as these mutations were previously reported to disrupt CoRNR box binding ([10], [30]). Heme (Sigma-Aldrich, no. 51280) was prepared either as a 1 mM stock in dimethyl sulfoxide (DMSO) stored at 4°C or 50 mM stock in 0.2 M NaOH (solutions prepared in 0.2 M NaOH were always made fresh immediately before the experiment), where indicated. […] Human embryonic kidney (HEK) 293T cells (American Type Culture Collection, no. CRL-11268) were cultured in Dulbecco’s modified eagle medium (DMEM) supplemented with 10% fetal bovine serum, 2 mM L-glutamine, and 1% penicillin-streptomycin at 37°C and 5% CO2 under standard culture conditions. The pcDNA3.1^+ expression vector containing full-length human REV-ERBβ ([31]) and the pGL3-Bmal1-luciferase construct containing the Bmal1 promoter (−816 to +99 of the mouse Bmal1 promoter region) were used in HEK293T cell transfections. Site-directed mutagenesis was performed to mutate the proximal RORE (pRORE mutant), distal RORE (dRORE mutant), or both (p/dRORE mutant) in the pGL3-Bmal1-luciferase construct based on a previous study ([6]) where the ROREs were mutated to disrupt REV-ERBα activity.
Human REV-ERBβ LBD was expressed in BL21(DE3) Escherichia coli cells with an N-terminal hexahistidine (6xHis) tag separated by a 3C protease cleavage site. Expression was performed using auto-induction media: Cells were grown at 37°C for 5 hours, 30°C for 1 hour, and 18°C for 16 hours before harvesting by centrifugation. Pellets were resuspended in potassium phosphate lysis buffer [40 mM potassium phosphate (pH 7.4), 500 mM KCl, 15 mM imidazole, and 1 mM dithiothreitol (DTT)] supplemented with leupeptin, pepstatin A, lysozyme, and deoxyribonuclease (DNase) I and sonicated on ice. […] A 5-ml aliquot of 6xHis-tagged protein was purified by size exclusion chromatography using a Superdex 75 column equilibrated in time-resolved fluorescence energy transfer (TR-FRET) assay buffer [20 mM potassium phosphate (pH 7.4), 50 mM KCl, and 0.5 mM EDTA]; purified aliquots were stored at −80°C for TR-FRET assays. To cleave the 6xHis tag from the remaining protein, it was incubated overnight with 3C protease (generated in-house) via dialysis; then, protein was reloaded onto the HisTrap columns, and the flow-through was collected. Last, aggregates were removed by size exclusion chromatography using a Superdex 75 column and Hepes gel filtration buffer [20 mM Hepes (pH 7.4), 50 mM KCl, and 0.5 mM EDTA]. Greater than 95% purity was confirmed by SDS-PAGE. Protein was aliquoted and stored at −80°C.
ITC experiments were performed using a MicroCal iTC200. All experiments were solvent-matched and contained 0.1% DMSO (peptide vehicle) and 0.2% 0.2 M solution of NaOH (heme vehicle) final concentrations. NITPIC software ([37]) was used to calculate baselines and integrate curves and prepare experimental data for fitting in SEDPHAT, which was used to generate final binding affinity and thermodynamic parameter measurements ([38]).Final figures were exported to GUSSI for publication-quality figure preparation ([39]).
NCoR ID1 and NCoR ID2 peptides were prepared at 50 μM in assay buffer [20 mM Hepes (pH 7.4), 50 mM KCl, 0.5 mM EDTA, and 5 mM tris(2-carboxyethyl)phosphine (TCEP)], and REV-ERBβ LBD was prepared at 500 μM. […]

[1] = ID2 peptide, 25°C, fitted estimate due to low c value, 95% CI n.d.
[2] = ID1 peptide, pH 7.4, 25°C, 95% CI

affinity of apo LBD for peptide (in words)	thermodynamic profile of peptide binding (in words), apo	TΔS [1] [kcal/mol]	ΔG, free energy of binding [1] [kcal/mol]	ΔH, enthalpy of binding [1] [kcal/mol]	ΔG, free energy of binding [2] [kcal/mol]	ΔH, enthalpy of binding [2] [kcal/mol]	TΔS (ID1 peptide, pH 7.4, T constant at 25°C, 95% CI) [kcal/mol]	Compound
low affinity	enthalpically driven and exothermic	-4.2	-5.6	-9.7				CC[C@H](C)[C@H](NC(=O)[C@H](CC(=O)O)NC(=O)[C@H](CCC(=O)O)NC(=O)[C@H](CC(C)C)NC(=O)CNC(=O)[C@H](CC(C)C)NC(=O)[C@H](CC(N)=O)NC(=O)[C@H](CO)NC(=O)[C@H](C)NC(=O)[C@@H]1CCCN1C(=O)[C@H](CC(=O)O)NC(C)=O)C(=O)N[C@H](C(=O)N[C@@H](CCCNC(=N)N)C(=O)N[C@@H](CCCCN)C(=O)N[C@@H](C)C(=O)N[C@@H](CC(C)C)C(=O)N[C@@H](CCSC)C(=O)NCC(=O)N[C@@H](CO)C(=O)N[C@@H](Cc1ccccc1)C(=O)N[C@@H](CC(=O)O)C(=O)N[C@@H](CC(=O)O)C(=O)N[C@@H](CCCCN)C(N)=O)[C@@H](C)CC [NCoR ID2 peptide]
high affinity	enthalpically driven and exothermic				-8.6	-7.7	0.88	Ac-RTHRLITLADHICQIITQDFARN-NH2 [NCoR ID1 peptide]
